≈ marks a conversion by molar mass, not a printed value.
Tests used:
[1] = Inhibition of MraY in Staphylococcus aureus by fluorescence assay
[2] = test system: Mycobacterium tuberculosis; test: Antimycobacterial activity against Mycobacterium tuberculosis H37Rv ATCC 27294 after 14 days by resazurin reduction microplate assay; type: functional; settings: H37Rv ATCC 27294, 336 h
Staphylococcus aureus = test: Inhibition of MraY in Staphylococcus aureus at 1 mM by fluorescence assay relative to control
[3] = Inhibition of Campylobacter concisus phosphoglycosyl transferase Pg1C

SMILES | MIC50 [2] [µM] | also measured
CC(C)C[C@H](NC(=O)[C@H](CCCCN)NC(=O)N[C@H](C(=O)O)C(C)C)C(=O)NCCCN[C@@H](C[C@H]1O[C@@H](N2CCC(=O)NC2=O)[C@H](O)[C@@H]1O)C(=O)O | – | IC50 [1]: 27 µM
CC(C)C[C@H](NC(=O)N[C@@H](Cc1c[nH]c2ccccc12)C(=O)O)C(=O)N[C@H](C(=O)NC[C@H]1C[C@@H](O)[C@H](n2ccc(=O)[nH]c2=O)O1)[C@H](C)N(C)C(=O)[C@@H](N)CCCCN | 1.35 (≈ 1.1 µg/mL) | –
C[C@@H]([C@H](NC(=O)[C@H](CC1CCCCC1)NC(=O)N[C@@H](Cc1c[nH]c2ccccc12)C(=O)O)C(=O)NC[C@H]1C[C@@H](O)[C@H](n2ccc(=O)[nH]c2=O)O1)N(C)C(=O)CN | 0.08 (≈ 0.0625 µg/mL) | –
CC(C)C[C@H](NC(=O)N[C@@H](Cc1c[nH]c2ccccc12)C(=O)O)C(=O)N[C@H](C(=O)NC[C@H]1C[C@@H](O)[C@H](n2ccc(=O)[nH]c2=O)O1)[C@H](C)N(C)C(=O)[C@@H](N)Cc1ccc2ccccc2c1 | 3 (≈ 2.65 µg/mL) | –
C[C@@H]([C@H](NC(=O)[C@H](Cc1ccc(O)cc1)NC(=O)N[C@@H](Cc1c[nH]c2ccccc12)C(=O)O)C(=O)NC[C@H]1C[C@@H](O)[C@H](n2ccc(=O)[nH]c2=O)O1)N(C)C(=O)CN | 0.52 (≈ 0.412 µg/mL) | –
CC(C)C[C@H](NC(=O)[C@H](CCCCN)NC(=O)N[C@H](C(=O)O)C(C)C)C(=O)NCCCN[C@@H](C[C@H]1O[C@@H](n2ccc(=O)[nH]c2=O)C[C@@H]1O)C(=O)O | – | IC50 [1]: 4.6 µM
CC(C)C[C@H](NC(=O)N[C@@H](Cc1c[nH]c2ccccc12)C(=O)O)C(=O)N[C@H](C(=O)NC[C@H]1C[C@@H](O)[C@H](n2ccc(=O)[nH]c2=O)O1)[C@H](C)N(C)C(=O)[C@@H](N)Cc1cccc(O)c1 | 0.3 (≈ 0.254 µg/mL) | –
Cc1cn([C@H]2C[C@H](O)[C@@H](C[C@H](NCCCNC(=O)[C@H](CC(C)C)NC(=O)[C@H](CCCCN)NC(=O)N[C@H](C(=O)O)C(C)C)C(=O)O)O2)c(=O)[nH]c1=O | – | IC50 [1]: > 100 µM; inhibition (Staphylococcus aureus): 38%
CC(C)[C@H](NC(=O)N[C@@H](Cc1c[nH]c2ccccc12)C(=O)O)C(=O)N[C@H](C(=O)NC[C@H]1C[C@@H](O)[C@H](n2ccc(=O)[nH]c2=O)O1)[C@H](C)N(C)C(=O)CN | 0.88 (≈ 0.64 µg/mL) | –
C[C@@H](O)[C@H](NC(=O)N[C@@H](Cc1c[nH]c2ccccc12)C(=O)O)C(=O)N[C@H](C(=O)NC[C@H]1C[C@@H](O)[C@H](n2ccc(=O)[nH]c2=O)O1)[C@H](C)N(C)C(=O)CN | 2.8 (≈ 2.04 µg/mL) | –
CC(C)C[C@H](NC(=O)[C@H](CCCCN)NC(=O)N[C@H](C(=O)O)C(C)C)C(=O)NCCCN[C@@H](C[C@H]1O[C@@H](n2cc(F)c(=O)[nH]c2=O)[C@H](O)[C@@H]1O)C(=O)O | – | IC50 [1]: > 100 µM; inhibition (Staphylococcus aureus): 40%
CC(C)C[C@H](NC(=O)N[C@@H](Cc1c[nH]c2ccccc12)C(=O)O)C(=O)N[C@H](C(=O)NC[C@H]1C[C@@H](O)[C@H](n2ccc(=O)[nH]c2=O)O1)[C@H](C)N(C)C(=O)[C@@H](N)CCCN | 0.95 (≈ 0.759 µg/mL) | –
C[C@@H]([C@H](NC(=O)[C@H](CCc1ccccc1)NC(=O)N[C@@H](Cc1c[nH]c2ccccc12)C(=O)O)C(=O)NC[C@H]1C[C@@H](O)[C@H](n2ccc(=O)[nH]c2=O)O1)N(C)C(=O)CN | 1.08 (≈ 0.853 µg/mL) | –
CCCCC[C@H](NC(=O)N[C@@H](Cc1c[nH]c2ccccc12)C(=O)O)C(=O)N[C@H](C(=O)NC[C@H]1C[C@@H](O)[C@H](n2ccc(=O)[nH]c2=O)O1)[C@H](C)N(C)C(=O)CN | 0.51 (≈ 0.385 µg/mL) | –
CC(C)C[C@H](NC(=O)N[C@@H](Cc1c[nH]c2ccccc12)C(=O)O)C(=O)N[C@H](C(=O)NC[C@H]1C[C@@H](O)[C@H](n2ccc(=O)[nH]c2=O)O1)[C@H](C)N(C)C(=O)CN | 0.63 (≈ 0.467 µg/mL) | –
CC(C)C[C@H](NC(=O)N[C@@H](Cc1c[nH]c2ccccc12)C(=O)O)C(=O)N[C@H](C(=O)NC[C@H]1C[C@@H](O)[C@H](n2ccc(=O)[nH]c2=O)O1)[C@H](C)N(C)C(=O)[C@@H](N)CC(=O)O | 9.8 (≈ 7.84 µg/mL) | –
CC(C)C[C@H](NC(=O)[C@H](C)NC(=O)N[C@H](C(=O)O)C(C)C)C(=O)NCCCN[C@@H](C[C@H]1O[C@@H](n2ccc(=O)[nH]c2=O)[C@H](O)[C@@H]1O)C(=O)O | – | IC50 [1]: 14 µM
C[C@@H]([C@H](NC(=O)[C@H](Cc1c[nH]c2ccccc12)NC(=O)N[C@@H](Cc1c[nH]c2ccccc12)C(=O)O)C(=O)NC[C@H]1C[C@@H](O)[C@H](n2ccc(=O)[nH]c2=O)O1)N(C)C(=O)CN | 0.44 (≈ 0.359 µg/mL) | –
C[C@@H]([C@H](NC(=O)[C@H](Cc1ccc(C(F)(F)F)cc1)NC(=O)N[C@@H](Cc1c[nH]c2ccccc12)C(=O)O)C(=O)NC[C@H]1C[C@@H](O)[C@H](n2ccc(=O)[nH]c2=O)O1)N(C)C(=O)CN | 0.2 (≈ 0.169 µg/mL) | –
CC(C)C[C@H](NC(=O)N[C@@H](Cc1c[nH]c2ccccc12)C(=O)O)C(=O)N[C@H](C(=O)NC[C@H]1C[C@@H](O)[C@H](n2ccc(=O)[nH]c2=O)O1)[C@H](C)N(C)C(=O)[C@@H](N)Cc1cccnc1 | 5.85 (≈ 4.87 µg/mL) | –
O=C(O)CC[C@H](NC(=O)Cn1cc(-c2cccc(F)c2)nn1)C(=O)NC[C@H]1O[C@@H](n2ccc(=O)[nH]c2=O)[C@H](O)[C@@H]1O | – | IC50 [3]: 72 µM
C[C@@H]([C@H](NC(=O)[C@@H](NC(=O)N[C@@H](Cc1c[nH]c2ccccc12)C(=O)O)C1CCCCC1)C(=O)NC[C@H]1C[C@@H](O)[C@H](n2ccc(=O)[nH]c2=O)O1)N(C)C(=O)CN | 0.51 (≈ 0.392 µg/mL) | –
